Results as given in patent EP0235773A1, “Improved pesticide formulations” (Shell Agrar GmbH & Co. KG, priority 1986, dated 1987).
Where a name gives a salt, the structure may show the parent alone.

Columns and labels:
[1] = cited from earlier work
[2] = Approximate solubility of solutes in butyrolactone (BLO); type: physicochemical; details: solvent BLO; approximately 25-30°C
Method: In formulating the solutions of chlorflurenol and solvent, it was necessary to agitate the solution in order to dissolve the chlorflurenol in the BLO, M-Pyrol, or BLO/M-PYROL.
From tests conducted, the following approximate solubilities at temperatures of approximately 25-30°C. were determined.
Technical dicamba acid - 86.9% acid equivalent Technical sodium salt of dicamba acid - 76% acid equivalent Technical chlorflurenol methyl ester - 95-98% total methal esters

| SMILES | water solubility [1] [grams/100 grams water] | Solubility for acid Equivalent Concentration [2] |
| --- | --- | --- |
| COC(=O)C1(O)c2ccccc2-c2ccc(Cl)cc21 (stereo not drawn) [Technical chlorflurenol methy ester, chlorflurenol methyl ester] | 0.0018 | approximately 25% |
| COc1c(Cl)ccc(Cl)c1C(=O)O [Technical sodium salt of dicamba] | – | Less than 1% |
